Holding throughout (test): SPR, PtdIns4,5P2-containing liposomes on L1 chip
In general terms: In SPR one partner is held on a chip, and binding of the other changes the refractive index at the surface.

The target in assay [1] is T1, AP2 core (Rattus norvegicus; Mus musculus; Homo sapiens, UniProt P18484+P63010+P84092).
T1 construct: gene Ap2a2; heterotetrameric 200 kDa core: alpha trunk-GST, His6-beta2 trunk, mu2 with myc tag (MEQKLI) in surface loop at residue 236, untagged sigma2; E. coli; with AP-2 complex subunit sigma
T1 sequence (P62743 whole entry): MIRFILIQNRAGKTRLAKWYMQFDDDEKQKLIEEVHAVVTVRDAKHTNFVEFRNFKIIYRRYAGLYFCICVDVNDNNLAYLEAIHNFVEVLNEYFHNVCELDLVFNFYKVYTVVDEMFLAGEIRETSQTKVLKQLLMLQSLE
T1 sequence (P84092 whole entry): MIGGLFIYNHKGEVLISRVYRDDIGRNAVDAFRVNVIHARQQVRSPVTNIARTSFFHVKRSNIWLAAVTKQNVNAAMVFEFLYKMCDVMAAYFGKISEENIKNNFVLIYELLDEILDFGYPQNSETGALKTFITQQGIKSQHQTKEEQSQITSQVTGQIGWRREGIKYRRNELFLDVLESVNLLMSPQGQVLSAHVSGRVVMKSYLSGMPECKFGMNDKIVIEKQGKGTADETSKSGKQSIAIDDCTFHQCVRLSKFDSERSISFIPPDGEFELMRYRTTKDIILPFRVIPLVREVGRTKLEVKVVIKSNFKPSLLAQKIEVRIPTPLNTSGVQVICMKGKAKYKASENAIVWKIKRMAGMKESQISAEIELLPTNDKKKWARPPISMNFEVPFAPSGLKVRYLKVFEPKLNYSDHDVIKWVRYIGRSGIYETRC
T1 sequence (P63010 1-592): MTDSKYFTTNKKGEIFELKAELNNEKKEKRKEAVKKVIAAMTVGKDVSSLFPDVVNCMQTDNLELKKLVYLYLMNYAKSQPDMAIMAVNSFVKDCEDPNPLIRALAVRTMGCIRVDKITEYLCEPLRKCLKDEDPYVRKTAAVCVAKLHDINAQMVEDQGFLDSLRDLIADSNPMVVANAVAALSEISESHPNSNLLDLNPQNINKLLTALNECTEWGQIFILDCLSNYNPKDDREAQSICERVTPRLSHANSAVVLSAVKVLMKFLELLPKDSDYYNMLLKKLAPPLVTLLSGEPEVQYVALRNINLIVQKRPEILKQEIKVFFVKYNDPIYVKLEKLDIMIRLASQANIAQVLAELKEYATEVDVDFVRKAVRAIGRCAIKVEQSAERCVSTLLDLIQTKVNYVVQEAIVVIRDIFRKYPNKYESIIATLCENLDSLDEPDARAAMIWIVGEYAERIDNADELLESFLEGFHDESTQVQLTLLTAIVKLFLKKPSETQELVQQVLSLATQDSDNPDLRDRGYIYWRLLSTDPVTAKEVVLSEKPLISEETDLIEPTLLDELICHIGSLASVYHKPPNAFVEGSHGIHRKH
T1 sequence (P18484 1-620): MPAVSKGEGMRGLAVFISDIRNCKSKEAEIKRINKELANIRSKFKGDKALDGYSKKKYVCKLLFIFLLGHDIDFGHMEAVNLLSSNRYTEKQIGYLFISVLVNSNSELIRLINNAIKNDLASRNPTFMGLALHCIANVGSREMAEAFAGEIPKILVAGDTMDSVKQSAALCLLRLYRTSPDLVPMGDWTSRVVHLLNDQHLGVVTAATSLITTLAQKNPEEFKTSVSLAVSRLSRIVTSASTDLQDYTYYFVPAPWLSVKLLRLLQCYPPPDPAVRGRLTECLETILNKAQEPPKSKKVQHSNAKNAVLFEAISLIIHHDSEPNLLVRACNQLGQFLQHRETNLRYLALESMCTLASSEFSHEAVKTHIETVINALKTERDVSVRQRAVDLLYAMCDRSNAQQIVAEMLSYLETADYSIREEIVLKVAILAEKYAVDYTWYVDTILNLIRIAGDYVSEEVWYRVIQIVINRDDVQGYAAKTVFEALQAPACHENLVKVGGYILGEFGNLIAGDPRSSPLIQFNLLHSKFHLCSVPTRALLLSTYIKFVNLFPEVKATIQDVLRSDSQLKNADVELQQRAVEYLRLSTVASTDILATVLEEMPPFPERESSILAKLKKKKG
As to conditions: apparent, multivalent membrane binding (sites on alpha, beta2, mu2); no cargo peptide; 10 mM Tris pH 8.7, 250 mM NaCl.

For assay [2], the target named is T2, AP2 core (Rattus norvegicus; Mus musculus; Homo sapiens, UniProt P18484+P63010+P84092, form not given, species not given).
T2 construct: gene Ap2a2; heterotetrameric 200 kDa core: alpha trunk-GST, His6-beta2 trunk, mu2 with myc tag (MEQKLI) in surface loop at residue 236, untagged sigma2; E. coli; with AP-2 complex subunit sigma
As to conditions: apparent, multivalent membrane binding.
Target sequence in this assay (P62743 whole entry): as the sequence (P62743 whole entry) above
Target sequence in this assay (P18484 1-620): as the sequence (P18484 1-620) above
Target sequence in this assay (P84092 whole entry): as the sequence (P84092 whole entry) above
Target sequence in this assay (P63010 1-592): as the sequence (P63010 1-592) above

Assay [3] deals with T2, AP2 core. As to conditions: apparent, multivalent membrane binding; five lysines of the second basic region (Lys330-Lys373) of C-mu2 to Glu, which five not told. From the text:
SPR, PtdIns4,5P2-containing liposomes on L1 chip on AP2 core | (5K>E) slightly weakens the binding of AP2 cores to PtdIns4,5P2-containing membranes
Target sequence in this assay (P18484 1-620): as the sequence (P18484 1-620) above
Target sequence in this assay (P84092 whole entry): as the sequence (P84092 whole entry) above
Target sequence in this assay (P62743 whole entry, further chain): as the sequence (P62743 whole entry) above
Target sequence in this assay (P63010 1-592): as the sequence (P63010 1-592) above

The results in this text go back to paper PMC3655264, “A Large-Scale Conformational Change Couples Membrane Recruitment to Cargo Binding in the AP2 Clathrin Adaptor Complex” (Cell, 2010).

As for PtdIns4,5P2, the Kd in assay [1] worked out at 7 µM; in assay [2], 30 µM; in assay [3] it was 11 µM.
